Among the data in patent publication EP4806891A1 (Kangbaida (Sichuan) Biotechnology Co., Ltd., priority 2023, dated 2025) are IC50 values, retold here.

Some results are limits rather than exact numbers.

The experiment addresses T1, HEK-Blue-hTLR8 cells (Homo sapiens, UniProt Q9NR97).
T1 construct: expressed in transfected cells; host or cells: HEK-Blue-hTLR8 cells (HEK293-derived reporter line)
T1 sequence (Q9NR97 27-1041): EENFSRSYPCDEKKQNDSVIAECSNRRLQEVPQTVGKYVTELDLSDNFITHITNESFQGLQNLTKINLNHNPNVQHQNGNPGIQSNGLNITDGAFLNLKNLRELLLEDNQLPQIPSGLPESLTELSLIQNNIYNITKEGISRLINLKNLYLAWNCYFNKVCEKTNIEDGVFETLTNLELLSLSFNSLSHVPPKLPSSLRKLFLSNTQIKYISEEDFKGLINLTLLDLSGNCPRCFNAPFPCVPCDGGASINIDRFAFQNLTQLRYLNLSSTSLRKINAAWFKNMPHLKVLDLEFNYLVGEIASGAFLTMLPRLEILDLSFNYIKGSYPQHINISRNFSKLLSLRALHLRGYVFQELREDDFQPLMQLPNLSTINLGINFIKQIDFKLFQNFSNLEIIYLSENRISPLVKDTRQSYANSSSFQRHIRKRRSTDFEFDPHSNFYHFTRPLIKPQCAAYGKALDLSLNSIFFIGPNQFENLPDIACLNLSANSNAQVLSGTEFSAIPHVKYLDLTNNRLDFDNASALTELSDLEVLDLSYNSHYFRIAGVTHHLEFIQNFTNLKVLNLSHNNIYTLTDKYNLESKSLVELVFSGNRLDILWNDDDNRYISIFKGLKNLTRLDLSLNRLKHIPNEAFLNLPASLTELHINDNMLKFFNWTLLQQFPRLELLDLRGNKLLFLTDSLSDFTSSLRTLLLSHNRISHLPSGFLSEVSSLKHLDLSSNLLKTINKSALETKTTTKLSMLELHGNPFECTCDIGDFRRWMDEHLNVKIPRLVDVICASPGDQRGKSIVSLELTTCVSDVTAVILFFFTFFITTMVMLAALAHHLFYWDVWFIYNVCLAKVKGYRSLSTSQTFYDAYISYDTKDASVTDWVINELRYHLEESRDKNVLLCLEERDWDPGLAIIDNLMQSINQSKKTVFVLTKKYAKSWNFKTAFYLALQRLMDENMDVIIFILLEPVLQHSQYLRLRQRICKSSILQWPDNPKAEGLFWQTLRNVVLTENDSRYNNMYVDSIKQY
The experiment is described as follows: HEK-Blue-hTLR8 cell inhibition assay. The settings on record: R848 3 µM, 16 h, OD 620 nm, read-out: TLR8 IC50. In kind it is cell-based. On the procedure: HEK-Blue-hTLR7/8/9 cell inhibition assay
1. HEK-Blue-hTLR7/8 cells (1 × 10^4 cells/well) and HEK-Blue-hTLR9 cells (1.5 × 10^4 cells/well) were seeded in a 384-well cell culture plate, with a volume of 30 µL per well. The plate was incubated at 37°C in a 5% CO2 incubator for 4 h. 2. The compound was prepared with DMSO and diluted in DMEM medium to 10 concentrations (1:3 dilution), with final concentrations of 10000, 3333.3, 1111.1, 370.4, 123.5, 41.2, 13.7, 4.6, 1.5, and 0.5 nM; R848 was prepared with DMSO and diluted in DMEM medium, with final concentrations of 0.8 µM (HEK-Blue-hTLR7) and 3 µM (HEK-Blue-hTLR8); ODN2006 was prepared with endotoxin-free water and diluted in DMEM medium, with a final concentration of 1 µM. 3. Cells treated with DMSO were used as the blank control group, while cells treated solely with Resiquimod (R848) were used as the positive control group for HEK-Blue-hTLR7/8, and cells treated solely with ODN2006 were used as the positive control group for HEK-Blue-hTLR9. Cells treated with the test compound together with R848 or ODN2006 were used as the test group. Two parallel wells were set for each group and were placed at 37°C in a 5% CO2 incubator for incubation. 4. After being incubated for 4 h, the 384-well plate of HEK-Blue-hTLR7/8 was taken out from the incubator, and R848 alone or both R848 and the diluted compound were separately added into each well. The plate was placed at 37°C in a 5% CO2 incubator for incubation for 16 h; the 384-well plate of HEK-Blue-hTLR9 was taken out from the incubator, and ODN2006 alone or both ODN2006 and the diluted compound were added separately to each well. The plate was incubated at 37°C in a 5% CO2 incubator for 16 h. 5. After being incubated for 16 h, the 384-well plate was removed from the incubator and centrifuged at 1000 rpm for 1 minute. The optical density value of each well at 620 nm was measured using a multifunctional microplate reader. 6. The cell inhibition rate was calculated as (1-(OD620 test group-OD620 blank group)/(OD620 positive group-OD620 blank group))×100%, and the half maximal inhibitory concentration (IC50) was calculated through curve fitting. Table 1: Activity of the compounds of the present disclosure in HEK-Blue-hTLR7/8/9 cellular assays

As a reminder, the IC50 is the concentration at which inhibition is half-maximal.

As for `CN1CCN(c2nnc([C@]34CN(c5ccc(C#N)c6ncccc56)C[C@@]3(C(F)(F)F)C4)o2)CC1` [Compound 1, 5-((1S,5R)-1-(5-(4-methylpiperazin-1-yl)-1,3,4-oxadiazol-2-yl)-5-(trifluoromethyl)-3-azabicyclo[3.1.0]hexan-3-yl)quinoline-8-carbonitrile], the IC50 was less than 100 nM.

`Cc1cc(N2CC3(c4nnc(C5CCN(C)CC5)o4)C[C@]3(C(F)(F)F)C2)c2cnn(C)c2n1` (stereo partly drawn) [Compound 2, 2-((5R)-3-(1,6-dimethyl-1H-pyrazolo[3,4-b]pyridin-4-yl)-5-(trifluoromethyl)-3-azabicyclo[3.1.0]hexan-1-yl)-5-(1-methylpiperidin-4-yl)-1,3,4-oxadiazole]: the IC50 was more than 1000 nM.

As to `FC(F)(F)c1ccc(N2C[C@]3(c4nnc(C5(F)CCNCC5)o4)C[C@]3(C(F)(F)F)C2)c2cccnc12` [Compound 3, 2-(4-fluoropiperidin-4-yl)-5-((1S,5R)-5-(trifluoromethyl)-3-(8-(trifluoromethyl)quinolin-5-yl)-3-azabicyclo[3.1.0]hexan-1-yl)-1,3,4-oxadiazole], the IC50 was less than 100 nM. Take `CN1CC(c2nnc([C@]34CN(c5ccc(C(F)(F)F)c6ncccc56)C[C@@]3(C(F)(F)F)C4)o2)C1` [Compound 4, 2-(1-methylazetidin-3-yl)-5-((1S,5R)-5-(trifluoromethyl)-3-(8-(trifluoromethyl)quinolin-5-yl)-3-azabicyclo[3.1.0]hexan-1-yl)-1,3,4-oxadiazole]: the IC50 was less than 100 nM.

For the compound `CN1CCC(c2nnc([C@]34CN(c5ccc(C#N)c6ncccc56)C[C@@]3(C(F)(F)F)C4)n2C)CC1` [Compound 5, 5-((1S,5R)-1-(4-methyl-5-(1-methylpiperidin-4-yl)-4H-1,2,4-triazol-3-yl)-5-(trifluoromethyl)-3-azabicyclo[3.1.0]hexan-3-yl)quinoline-8-carbonitrile], the IC50 is more than 1000 nM. For the compound `CN1CCC(Nc2nnc([C@]34CN(c5ccc(C#N)c6ncccc56)C[C@@]3(C(F)(F)F)C4)o2)CC1` [Compound 6, 5-((1S,5R)-1-(5-((1-methylpiperidin-4-yl)amino)-1,3,4-oxadiazol-2-yl)-5-(trifluoromethyl)-3-azabicyclo[3.1.0]hexan-3-yl)quinoline-8-carbonitrile], the IC50 is less than 100 nM. `N#Cc1ccc(N2C[C@]3(c4nnc(N)o4)C[C@]3(C(F)(F)F)C2)c2cccnc12` [Compound 7, 5-((1S,5R)-1-(5-amino-1,3,4-oxadiazol-2-yl)-5-(trifluoromethyl)-3-azabicyclo[3.1.0]hexan-3-yl)quinoline-8-carbonitrile]: the IC50 is less than 100 nM. For the compound `CN1CCC(C)(c2nnc([C@]34CN(c5ccc(C#N)c6ncccc56)C[C@@]3(C(F)(F)F)C4)o2)CC1` [Compound 8, 5-((1S,5R)-1-(5-(1,4-dimethylpiperidin-4-yl)-1,3,4-oxadiazol-2-yl)-5-(trifluoromethyl)-3-azabicyclo[3.1.0]hexan-3-yl)quinoline-8-carbonitrile], the IC50 is less than 100 nM. As for `CN1CCC(c2nnc([C@]34CN(c5ccc(C#N)c6ncccc56)C[C@@]3(C(F)(F)F)C4)[nH]2)CC1` [Compound 9, 5-((1S,5R)-1-(5-(1-methylpiperidin-4-yl)-4H-1,2,4-triazol-3-yl)-5-(trifluoromethyl)-3-azabicyclo[3.1.0]hexan-3-yl)quinoline-8-carbonitrile], the half-maximal inhibitory concentration (IC50) is less than 100 nM.

For `CN1[C@@H]2CC[C@H]1C[C@H](c1nnc([C@]34CN(c5ccc(C#N)c6ncccc56)C[C@@]3(C(F)(F)F)C4)o1)C2` [Compound 11, 5-((1S,5R)-1-(5-((1R,3S,5S)-8-methyl-8-azabicyclo[3.2.1]octan-3-yl)-1,3,4-oxadiazol-2-yl)-5-(trifluoromethyl)-3-azabicyclo[3.1.0]hexan-3-yl)quinoline-8-carbonitrile], the IC50 was less than 100 nM. For the compound `N#Cc1ccc(N2C[C@]3(c4nnc(C5CCOCC5)o4)C[C@]3(C(F)(F)F)C2)c2cccnc12` [Compound 12, 5-((1S,5R)-1-(5-(tetrahydro-2H-pyran-4-yl)-1,3,4-oxadiazol-2-yl)-5-(trifluoromethyl)-3-azabicyclo[3.1.0]hexan-3-yl)quinoline-8-carbonitrile], the IC50 is less than 100 nM. Take `CN1CC2(CCC(c3nnc([C@]45CN(c6ccc(C#N)c7ncccc67)C[C@@]4(C(F)(F)F)C5)o3)CC2)C1` [Compound 13, 5-((1S,5R)-1-(5-(2-methyl-2-azaspiro[3.5]nonan-7-yl)-1,3,4-oxadiazol-2-yl)-5-(trifluoromethyl)-3-azabicyclo[3.1.0]hexan-3-yl)quinoline-8-carbonitrile]: the IC50 is less than 100 nM. The same measure for `CN1CC2CC1CC2c1nnc([C@]23CN(c4ccc(C#N)c5ncccc45)C[C@@]2(C(F)(F)F)C3)o1` (stereo partly drawn) [Compound 14, 5-((1S,5R)-1-(5-(2-methyl-2-azabicyclo[2.2.1]heptan-5-yl)-1,3,4-oxadiazol-2-yl)-5-(trifluoromethyl)-3-azabicyclo[3.1.0]hexan-3-yl)quinoline-8-carbonitrile]: less than 100 nM; for `CN1CCC(Oc2nnc([C@]34CN(c5ccc(C#N)c6ncccc56)C[C@@]3(C(F)(F)F)C4)o2)CC1` [Compound 15, 5-((1S,5R)-1-(5-((1-methylpiperidin-4-yl)oxy)-1,3,4-oxadiazol-2-yl)-5-(trifluoromethyl)-3-azabicyclo[3.1.0]hexan-3-yl)quinoline-8-carbonitrile]: less than 100 nM; for `N#Cc1ccc(N2C[C@]3(c4nnc(C5CCN(CC(N)=O)CC5)o4)C[C@]3(C(F)(F)F)C2)c2cccnc12` [Compound 17, 2-(4-(5-((1S,5R)-3-(8-cyanoquinolin-5-yl)-5-(trifluoromethyl)-3-azabicyclo[3.1.0]hexan-1-yl)-1,3,4-oxadiazol-2-yl)piperidin-1-yl)acetamide]: less than 100 nM. The same measure for `N#Cc1ccc(N2C[C@]3(c4nnc(C5CC6(CNC6)C5)o4)C[C@]3(C(F)(F)F)C2)c2cccnc12` [Compound 18, 5-((1S,5R)-1-(5-(2-azaspiro[3.3]heptan-6-yl)-1,3,4-oxadiazol-2-yl)-5-(trifluoromethyl)-3-azabicyclo[3.1.0]hexan-3-yl)quinoline-8-carbonitrile]: less than 100 nM; for `CN1CC2(CC(c3nnc([C@]45CN(c6ccc(C#N)c7ncccc67)C[C@@]4(C(F)(F)F)C5)o3)C2)C1` [Compound 19, 5-((1S,5R)-1-(5-(2-methyl-2-azaspiro[3.3]heptan-6-yl)-1,3,4-oxadiazol-2-yl)-5-(trifluoromethyl)-3-azabicyclo[3.1.0]hexan-3-yl)quinoline-8-carbonitrile]: less than 100 nM; for `N#Cc1ccc(N2C[C@]3(c4nnc([C@H]5CC[C@H](N)CC5)o4)C[C@]3(C(F)(F)F)C2)c2cccnc12` [Compound 20, 5-((1S,5R)-1-(5-((1R,4S)-4-aminocyclohexyl)-1,3,4-oxadiazol-2-yl)-5-(trifluoromethyl)-3-azabicyclo[3.1.0]hexan-3-yl)quinoline-8-carbonitrile]: less than 100 nM.
